Data: US6897219B2, “Heteroaryl diazacycloalkanes, their preparation and use” (priority 1997, dated 2005)
Structures can show the parent of a compound that is named as a salt.

Structure (SMILES) | melting point [°C]
CCCCCCOc1cncc(N2CCCNCC2)c1 (as salt: fumaric acid salt) | 149.5 to 151.8
CC1CCN(c2ccc(Cl)nn2)CCCN1 (stereo not shown) (as salt: fumaric acid salt) | 166 to 168
c1ncc(N2CCCNCC2)cc1OCC1CCCCC1 (as salt: fumaric acid salt) | 163.3 to 164.5
CCCCCOc1cncc(N2CCCNCC2)c1 (as salt: fumaric acid salt) | 155.5 to 156.7
Nc1cccc(N2CCCNCC2)c1 (as salt: fumaric acid salt) | 165.4 to 167.7
c1ccn(-c2cncc(N3CCCNCC3)c2)c1 (as salt: fumaric acid salt) | 174 to 175
CN1CCCN(c2ccc(Cl)nn2)CC1 (as salt: fumaric acid salt) | 171 to 172
c1ccc(CN2CCCN(c3cccnc3)CC2)cc1 (as salt: fumaric acid salt) | 148.4 to 149
CCN1CCCN(c2cccnc2)CC1 (as salt: fumaric acid salt) | 145.3 to 147.5
COc1ccc(N2CCCNCC2)cn1 (as salt: fumaric acid salt) | 127 to 128
CCCCOc1cncc(N2CCCNCC2)c1 (as salt: fumaric acid salt) | 150 to 151
Clc1cncc(N2CCCNCC2)c1 (as salt: fumaric acid salt) | 144.4 to 146.6
Clc1nc2ccccc2nc1N1CCCNCC1 (as salt: fumaric acid salt) | 136.2 to 139.9
CN1CCN(c2cccnc2)CC1 (as salt: fumaric acid salt) [Compound 1A, 4-Methyl-1-(3-pyridyl)-piperazine] | 144.5 to 145.9
c1cncc(N2CCNCC2)c1 (as salt: fumaric acid salt) [Compound 1B, 1-(3-Pyridyl)-piperazine] | 161.7 to 164.8
CCOc1cncc(N2CCNCC2)c1 (as salt: fumaric acid salt) [Compound 1D, 1-(5-Ethoxy-3-pyridyl)piperazine] | 160 to 161.2
c1cncc(N2CCCNCC2)c1 (as salt: fumaric acid salt) [Compound 1F, 1-(3-Pyridyl)-homopiperazine] | 172.1 to 172.9
COc1cncc(N2CCCNCC2)c1 (as salt: fumaric acid salt) [Compound 1H, 1-(5-Methoxy-3-pyridyl)-homopiperazine] | 161 to 162
Clc1ccc(N2CCCNCC2)nn1 (as salt: fumaric acid salt) [Compound 1K, 1-(6-Chloro-3-pyridazinyl)-homopiperazine] | 165 to 166
COc1cncc(N2CCN(C)C2)c1 (as salt: fumaric acid salt) [Compound 1M, 1-(5-Methoxy-3-pyridyl)-3-methyl-imidazolidine] | 139 to 142
CCCCOc1cncc(N2CCNCC2)c1 (as salt: fumaric acid salt) [Compound 2D, 1-(5-Butoxy-3-pyridyl)piperazine] | 149.4 to 151.7
CN1CCCN(c2cnc3ccccc3c2)CC1 (as salt: fumaric acid salt) [Compound 2E, 4-Methyl-1-(3-quinolinyl)-homopiperazine] | 170 to 171
c1ccc2ncc(N3CCCNCC3)cc2c1 (as salt: fumaric acid salt) [Compound 2F, 1-(3-Quinolinyl)-homopiperazine] | 181 to 182
c1ccc(-c2cncc(N3CCCNCC3)c2)cc1 (as salt: fumaric acid salt) [Compound 2H, 1-(5-Phenyl-3-pyridyl)-homopiperazine] | 185 to 186
c1ccc2nc(N3CCCNCC3)cnc2c1 (as salt: fumaric acid salt) [Compound 2L, 1-(2-Quinoxalinyl)-homopiperazine] | 177 to 180
COc1cncc(N2CCCN(C)C2)c1 (as salt: fumaric acid salt) [Compound 2M, 1-(5-Methoxy-3-pyridyl)-3-methyl-1,3-diazacyclohexane] | 149 to 151
COc1cncc(N2CCNCC2)c1 (as salt: fumaric acid salt) [Compound 3B, 1-(5-Methoxy-3-pyridyl)-piperazine] | 168.5 to 170.5
COc1cncc(N2CCCN(C)CC2)c1 (as salt: fumaric acid salt) [Compound 3E, 1-(5-Methoxy-3-pyridyl)-4-methyl-homopiperazine] | 145 to 147

Structure (SMILES) | melting point [°C]
CCOc1cncc(N2CCCNCC2)c1 (as salt: fumaric acid salt) [Compound 3H, 1-(5-Ethoxy-3-pyridyl)-homopiperazine] | 157.5 to 159
Clc1cncc(N2CCCNCC2)n1 (as salt: fumaric acid salt) [Compound 3K, 1-(6-Chloro-2-pyrazinyl)-homopiperazine] | 180 to 181
Clc1cncc(N2CCNCC2)c1 (as salt: fumaric acid salt) [Compound 4B, 1-(5-Chloro-3-pyridyl)-piperazine] | 195 to 196
CCOc1cncc(N2CCCN(C)CC2)c1 (as salt: fumaric acid salt) [Compound 4E, 1-(5-Ethoxy-3-pyridyl)-4-methyl-homopiperazine] | 150 to 152
CN1CCN(c2cncc(Cl)c2)CC1 (as salt: fumaric acid salt) [Compound 5A, 1-(5-Chloro-3-pyridyl)-4-Methyl-piperazine] | 162 to 163
CN1CCCN(c2cncc(-c3ccccc3)c2)CC1 (as salt: fumaric acid salt) [Compound 5E, 4-Methyl-1-(5-phenyl-3-pyridyl)-homopiperazine] | 161 to 162
COc1cc(N2CCCNCC2)cnc1Cl (as salt: fumaric acid salt) [Compound 5F, 1-(6-Chloro-5-methoxy-3-pyridyl)-homopiperazine] | 196 to 197
COCCOc1cncc(N2CCCNCC2)c1 (as salt: fumaric acid salt) [Compound 5H, 1-(5-Methoxyethoxy-3-pyridyl)-homopiperazine] | 126 to 127
Cc1ccc(N2CCCNCC2)nn1 (as salt: fumaric acid salt) [Compound 5K, 1-(6-Methyl-3-pyridazinyl)-homopiperazine] | 102 to 105
CN1CCN(c2cncc(-c3ccccc3)c2)CC1 (as salt: fumaric acid salt) [Compound 6A, 4-Methyl-1-(5-phenyl-3-pyridyl)-piperazine] | 179 to 180
COc1cncc(N2CCCNCCC2)c1 (as salt: fumaric acid salt) [Compound 6B, 1-(5-Methoxy-3-pyridyl)-1,5-diazacyclooctane] | 158 to 160
CCCCOc1cncc(N2CCCN(C)CC2)c1 (as salt: fumaric acid salt) [Compound 6E, 1-(5-Butoxy-3-pyridyl)-4-methyl-homopiperazine] | 127 to 129
CC(C)COc1cncc(N2CCCNCC2)c1 (as salt: fumaric acid salt) [Compound 6H, 1-[5-(2-Methyl-propoxy)-3-pyridyl]-homopiperazine] | 121.9 to 123.3
CCOc1cncc(N2CCN(C)CC2)c1 (as salt: fumaric acid salt) [Compound 7A, 1-(5-Ethoxy-3-pyridyl)-4-methyl-piperazine] | 162.2 to 163.7
Clc1ccc(N2CCCNCCC2)nn1 (as salt: fumaric acid salt) [Compound 7B, 1-(6-Chloro-3-pyridazinyl)-1,5-diazacyclooctane] | 176 to 178
Clc1ccc(N2CCCCNCC2)nn1 (as salt: fumaric acid salt) [Compound 8B, 1-(6-Chloro-3-pyridazinyl)-1,4-diazacyclooctane] | 177 to 179
CC(C)COc1cncc(N2CCCN(C)CC2)c1 (as salt: fumaric acid salt) [Compound 8E, 4-Methyl-1-[5-(2-methyl-propyloxy)-3-pyridyl]-homopiperazine] | 145.7 to 146.9
Brc1ccc(N2CCCNCC2)cn1 (as salt: fumaric acid salt) [Compound 8K, 1-(6-Bromo-3-pyridyl)-homopiperazine] | 164 to 166
CCOc1cncc(N2CCN(CC)CC2)c1 (as salt: fumaric acid salt) [Compound 9D, 1-(5-Ethoxy-3-pyridyl)-4-ethyl-piperazine] | 144.8 to 145.9
CN1CCCN(c2cncc(OCC3CC3)c2)CC1 (as salt: fumaric acid salt) [Compound 9E, 1-(5-Cyclopropylmethoxy-3-pyridyl)-4-methyl-homopiperazine] | 160.4 to 161.9
c1ncc(N2CCCNCC2)cc1OCC1CC1 (as salt: fumaric acid salt) [Compound 9H, 1-(5-Cyclopropylmethoxy-3-pyridyl)-homopiperazine] | 154 to 156
CCCOc1cncc(N2CCCN(C)CC2)c1 (as salt: fumaric acid salt) [Compound 10E, 4-Methyl-1-(5-propyloxy-3-pyridyl)-homopiperazine] | 148.8 to 153.5
CCCOc1cncc(N2CCCNCC2)c1 (as salt: fumaric acid salt) [Compound 10H, 1-(5-Propyloxy-3-pyridyl)-homopiperazine] | 156.2 to 157.8
COc1cncc(N2CCCNC(C)CC2)c1 (stereo not shown) (as salt: fumaric acid salt) [Compound 11A] | 137 to 139
CCCCCCOc1cncc(N2CCCN(C)CC2)c1 (as salt: fumaric acid salt) [Compound 11E, 1-(5-Hexyloxy-3-pyridyl)-4-methyl-homopiperazine] | 128.7 to 130.8
CC(C)CCOc1cncc(N2CCCN(C)CC2)c1 (as salt: fumaric acid salt) [Compound 12E, 4-Methyl-1-[5-(3-methyl-butoxy)-3-pyridyl]-homopiperazine] | 130.4 to 131.9
CN1CCCN(c2cncc(OCC3CCCCC3)c2)CC1 (as salt: fumaric acid salt) [Compound 14E, 1-(5-Cyclohexylmethoxy-3-pyridyl)-4-methyl-homopiperazine] | 160.4 to 162
